Values of other authors as cited in patent US20040137049A1, “Amphotericin b aqueous composition” (priority 2001, published 2004).
Converted amounts (≈) assume the structure as drawn.

Conditions: in methanol

Structure (SMILES): C[C@@H]1[C@H](O)[C@@H](C)/C=C/C=C/C=C/C=C/C=C/C=C/C=C/[C@H](O[C@@H]2O[C@H](C)[C@@H](O)[C@H](N)[C@@H]2O)C[C@@H]2O[C@](O)(C[C@@H](O)C[C@@H](O)[C@H](O)CC[C@@H](O)C[C@@H](O)CC(=O)O[C@H]1C)C[C@H](O)[C@H]2C(=O)O [Amphotericin B]
- Solubility: 100 µg/mL (≈ 108 µM)
